For orientation: Km means the concentration of substrate that gives half-maximal velocity.

Counter-ions that a name gives are not always drawn. Like-named read-outs stand apart in the source and are kept apart here.

7 compounds from patent US10023601B2, “Hydrolysis resistant sialic acid derivatives and methods for their use” (The University of British Columbia, priority 2014, dated 2018) can be followed below.

One data set deals with T1, Pm0188h (Pasteurella multocida, UniProt Q15KI8).
T1 sequence (Q15KI8 26-412): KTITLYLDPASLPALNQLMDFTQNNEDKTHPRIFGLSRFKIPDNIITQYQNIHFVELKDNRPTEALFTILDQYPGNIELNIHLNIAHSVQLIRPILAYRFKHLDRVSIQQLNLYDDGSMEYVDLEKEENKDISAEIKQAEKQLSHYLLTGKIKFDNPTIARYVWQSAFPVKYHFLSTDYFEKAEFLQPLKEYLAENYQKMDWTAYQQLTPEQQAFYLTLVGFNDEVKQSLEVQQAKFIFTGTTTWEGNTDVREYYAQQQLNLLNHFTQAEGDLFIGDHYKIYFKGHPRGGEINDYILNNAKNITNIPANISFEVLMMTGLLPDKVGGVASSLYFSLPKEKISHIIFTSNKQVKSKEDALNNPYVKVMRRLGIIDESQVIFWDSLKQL
Description: Sialyltransferase kinetics, CMP release assay, transfer to lactose by Pm0188h.

The next data set concerns the target Cst-I (Campylobacter jejuni, UniProt Q9RGF1).
A short description of data set [1]: Spontaneous hydrolysis of CMP 7-modified sialic acids by 1H-NMR. It is filed as physicochemical.
The target of data set [2] is C. perfringens (GH33) sialidase (NanI) (Clostridium perfringens, UniProt A0A0H2YQR1). It is filed as biochemical.
The target in data set [3] is T2, T. rangeli (GH33) sialidase (TrSA) (Trypanosoma rangeli, UniProt O44049).
T2 sequence (O44049 23-660): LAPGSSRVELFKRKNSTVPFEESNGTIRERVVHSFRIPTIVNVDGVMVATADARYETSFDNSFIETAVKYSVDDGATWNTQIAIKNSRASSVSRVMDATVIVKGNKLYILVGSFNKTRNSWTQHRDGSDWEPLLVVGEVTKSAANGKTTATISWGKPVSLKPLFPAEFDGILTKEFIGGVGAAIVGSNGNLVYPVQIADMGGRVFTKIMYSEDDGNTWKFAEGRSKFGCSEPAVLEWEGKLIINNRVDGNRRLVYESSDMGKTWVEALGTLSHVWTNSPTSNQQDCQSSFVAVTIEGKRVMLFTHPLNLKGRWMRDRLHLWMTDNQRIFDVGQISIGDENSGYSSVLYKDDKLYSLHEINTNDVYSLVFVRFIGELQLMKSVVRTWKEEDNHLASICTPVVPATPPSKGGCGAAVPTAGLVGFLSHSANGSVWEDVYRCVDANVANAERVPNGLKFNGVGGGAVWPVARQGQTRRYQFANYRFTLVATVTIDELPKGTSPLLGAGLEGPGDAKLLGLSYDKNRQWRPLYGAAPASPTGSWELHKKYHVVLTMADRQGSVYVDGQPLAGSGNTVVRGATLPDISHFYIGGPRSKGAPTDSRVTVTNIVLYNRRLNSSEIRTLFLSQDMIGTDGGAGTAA
The experiment in a line: Sialidase kinetics, β-galactosidase coupled assay, T. rangeli sialidase.

The target in data set [4] is influenza neuraminidase N9 (GH34) (Influenza A virus, UniProt P03472). In kind it is biochemical. The following applies: pH 5.9.
Data set [5] can be described thus: Spontaneous hydrolysis of 7-modified sialyl-galactose conjugates by 1H-NMR. The following applies: high salt, dilute acid (25 mM HCl). It is filed as physicochemical.

Chain of influenza neuraminidase N9 (GH34) (P03472 whole entry, looked up): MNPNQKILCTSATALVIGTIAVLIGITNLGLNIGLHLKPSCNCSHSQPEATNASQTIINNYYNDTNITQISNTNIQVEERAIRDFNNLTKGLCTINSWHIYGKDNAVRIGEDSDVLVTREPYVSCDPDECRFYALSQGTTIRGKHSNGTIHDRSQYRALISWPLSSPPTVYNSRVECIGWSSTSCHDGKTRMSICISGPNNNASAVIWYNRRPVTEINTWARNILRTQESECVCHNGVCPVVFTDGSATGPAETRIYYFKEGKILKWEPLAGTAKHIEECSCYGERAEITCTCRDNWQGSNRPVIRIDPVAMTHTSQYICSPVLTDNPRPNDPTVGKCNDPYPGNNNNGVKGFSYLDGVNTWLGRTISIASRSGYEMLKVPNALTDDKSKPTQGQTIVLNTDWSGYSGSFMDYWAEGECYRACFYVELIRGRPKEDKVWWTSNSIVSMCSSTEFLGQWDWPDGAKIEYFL
Chain of Cst-I (Q9RGF1 1-285 limits assumed): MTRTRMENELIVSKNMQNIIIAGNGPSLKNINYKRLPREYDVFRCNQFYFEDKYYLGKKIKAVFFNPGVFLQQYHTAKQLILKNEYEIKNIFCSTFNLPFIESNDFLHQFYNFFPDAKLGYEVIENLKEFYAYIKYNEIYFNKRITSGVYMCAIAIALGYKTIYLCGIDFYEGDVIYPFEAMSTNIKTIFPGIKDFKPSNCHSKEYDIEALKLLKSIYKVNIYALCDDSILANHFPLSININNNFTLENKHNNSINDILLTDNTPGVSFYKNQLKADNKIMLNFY
Chain of C. perfringens (GH33) sialidase (NanI) (A0A0H2YQR1 1-694): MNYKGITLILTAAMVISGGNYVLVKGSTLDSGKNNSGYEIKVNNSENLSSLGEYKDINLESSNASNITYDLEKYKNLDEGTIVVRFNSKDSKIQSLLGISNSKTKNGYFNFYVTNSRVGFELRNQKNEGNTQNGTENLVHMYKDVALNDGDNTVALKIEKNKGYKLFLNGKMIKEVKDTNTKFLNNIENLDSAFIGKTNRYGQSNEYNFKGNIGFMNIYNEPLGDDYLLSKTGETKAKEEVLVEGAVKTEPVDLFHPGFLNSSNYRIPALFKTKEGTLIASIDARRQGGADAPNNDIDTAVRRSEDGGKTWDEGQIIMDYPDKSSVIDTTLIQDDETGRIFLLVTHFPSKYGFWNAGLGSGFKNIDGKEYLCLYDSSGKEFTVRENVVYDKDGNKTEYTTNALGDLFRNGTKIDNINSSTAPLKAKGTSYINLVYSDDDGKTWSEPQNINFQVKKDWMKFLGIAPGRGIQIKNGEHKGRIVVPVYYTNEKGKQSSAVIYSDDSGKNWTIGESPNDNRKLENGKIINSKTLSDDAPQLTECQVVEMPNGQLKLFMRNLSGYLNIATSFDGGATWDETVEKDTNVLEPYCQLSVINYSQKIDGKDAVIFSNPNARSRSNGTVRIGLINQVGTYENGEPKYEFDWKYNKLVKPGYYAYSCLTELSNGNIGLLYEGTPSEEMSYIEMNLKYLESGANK

Regarding `CC(=O)N[C@H]1[C@H]([C@H](F)[C@H](O)CO)O[C@](OP(=O)(O)OC[C@H]2O[C@@H](n3ccc(N)nc3=O)[C@H](O)[C@@H]2O)(C(=O)O)C[C@@H]1O` [compound 14, 5-Acetamido-3,5,7-trideoxy-2-(hydrogen 5′-cytidylate)-7-fluoro-D-glycero-b-D-galacto-2-nonulopyranosidic acid diammonium salt], the “kcat (rel)” value at Pm0188h came out at 0.54; at Cst-I, 0.77. The compound further registered a krel in data set [1] of 0.33. Besides, in data set [1] (pH 7.2), the Hydrolysis rate constant is 0.313 (±0.002) h^−1.

Turning to `CC(=O)N[C@H]1[C@H](C(F)(F)[C@H](O)CO)O[C@](OP(=O)(O)OC[C@H]2O[C@@H](n3ccc(N)nc3=O)[C@H](O)[C@@H]2O)(C(=O)O)C[C@@H]1O` [compound 15, 5-Acetamido-3,5,7-trideoxy-2-(hydrogen 5′-cytidylate)-7,7-difluoro-D-glycero-b-D-galacto-2-nonulopyranosidic acid diammonium salt], the “kcat (rel)” value on Pm0188h stood at 0.06; at Cst-I it was 0.25. Also, the krel in data set [1] was determined as 0.01. Besides, the Hydrolysis rate constant in data set [1] (pH 7.2) is 0.0084 (±0.0008) h^−1.

For the compound `CC(=O)N[C@H]1[C@H]([C@H](O)[C@H](O)CO)O[C@](OP(=O)(O)OC[C@H]2O[C@@H](n3ccc(N)nc3=O)[C@H](O)[C@@H]2O)(C(=O)O)C[C@@H]1O` [compound 16, CMP-NeuNAc, reference compound], the “kcat (rel)” value on Pm0188h and on Cst-I was 1 each time. In data set [1] (spontaneous hydrolysis rate relative to CMP-NeuNAc), this compound came in with a krel of 1. The Hydrolysis rate constant in data set [1] (spontaneous hydrolysis, high salt pH 7.2 buffer, 1H-NMR) was 0.94 (±0.01) h^−1.

Take `CC(=O)N[C@H]1[C@H]([C@H](O)[C@H](O)CO)O[C@@](O[C@H]2[C@@H](O)[C@@H](CO)O[C@@H](Oc3ccccc3[N+](=O)[O-])[C@@H]2O)(C(=O)O)C[C@@H]1O` [compound 17, ortho-Nitrophenyl (5-Acetamido-3,5-dideoxy-D-glycero-α-D-galacto-non2-ulopyranosylonic acid)-(2→3)-β-D-galactopyranoside, reference compound]: the values for the Km in data set [2] (pH 6.7) and in data set [4] were 800 µM and 830 µM, respectively. Moreover, the kcat in data set [2] (pH 6.7) is on record as 78 (±2) min^−1; in data set [3] (sialidase substrate, 30° C., pH 6.0) it was 83 (±4) min^−1. For the same compound, in data set [4], the Vm is recorded as 17.5 (±0.5) μM min^−1.

As for `CC(=O)N[C@H]1[C@H]([C@H](F)[C@H](O)CO)O[C@@](O[C@H]2[C@@H](O)[C@@H](CO)O[C@@H](Oc3ccccc3[N+](=O)[O-])[C@@H]2O)(C(=O)O)C[C@@H]1O` [compound 18, ortho-Nitrophenyl (5-Acetamido-3,5,7-trideoxy-7-fluoro-D-glycero-α-D-galacto-non2-ulopyranosylonic acid)-(2→3)-β-D-galactopyranoside], the “saturation of enzyme by substrate” value in data set [2] and in data set [3] was “Saturation was not achieved” throughout. Further, the Km in data set [4] is 390 µM. Also, the Vm in data set [4] is recorded as 4.6 (±0.2) μM min^−1.

Take `CC(=O)NC1C(O)CC(OC2C(O)C(CO)OC(Oc3ccc4c(C)cc(=O)oc4c3)C2O)(C(=O)O)OC1C(O)C(O)CO` [compound 19, 4-Methylumbelliferyl (5-acetamido-3,5-dideoxy-D-glycero-α-D-galacto-non2-ulopyranosylonic acid)-(2→3)-β-D-galactopyranoside, reference compound]: in data set [5], the “spontaneous hydrolysis rate constant” value is 1.45 (±0.8) h-1.

For the compound `CC(=O)NC1C(O)CC(OC2C(O)C(CO)OC(Oc3ccc4c(C)cc(=O)oc4c3)C2O)(C(=O)O)OC1C(F)C(O)CO` [compound 20, 4-Methylumbelliferyl (5-acetamido-3,5,7-trideoxy-7-fluoro-D-glycero-α-D-galacto-non2-ulopyranosylonic acid)-(23)-β-D-galactopyranoside], in data set [5], the “spontaneous hydrolysis rate constant” value is 0.29 (±0.01) h-1.
